Measured values: patent US9223210B2, “Photosensitive compound, photosensitive resin, and photosensitive composition” (TOYO GOSEI CO., LTD., priority 2012, dated 2015)

Tests used:
[1] = Solubility in aqueous phosphoric acid solution (Test Example 1); format: physicochemical; settings: for Solubility in aq. phosphoric acid solution (104 g): liquid temperature 20° C., amount dissolved (complete dissolution where stated); for Solubility in aqueous phosphoric acid solution (in words): summary of Table 1
Description: (§1) Solubility of each of the photosensitive compounds produced in Comparative Synthesis Examples 1 to 2 and Examples 2 to 5 (comparative photosensitive materials H and I, and photosensitive materials C to F) in 100 g of neutral water (water temperature: 20° C.) was assessed. The solubility in an aqueous phosphoric acid solution (liquid temperature: 20° C.) obtained by mixing phosphoric acid (4 g) and water (100 g), was also determined.

[2] = Solubility in neutral water (Test Example 1); format: physicochemical; settings: 100 g of neutral water, water temperature 20° C.
Description: as §1

[3] = phosphoric acid (4 g) and water (100 g)

| Compound | Solubility in aq. phosphoric acid solution (104 g) [1, 3] | Solubility in water (100 g) [2] | Solubility in aqueous phosphoric acid solution (in words) [1] | Solubility in aq. phosphoric acid solution (104 g), partial dissolution ([1]; phosphoric acid (4 g) and water (100 g), 20° C., amount giving only partial dissolution) |
| --- | --- | --- | --- | --- |
| 3-(4-azidophenyl)-N-(4,4′-dimethoxybutyl)-2-(4-imidazolylmethylphenyl)carbonylamino-prop-2-enamide [Photosensitive material D] | 5 g (complete | ≦0.1 g |  |  |
| COC(CCCNC(=O)C(=Cc1ccc(N=[N+]=[N-])cc1)NC(=O)c1ccccc1)OC [Comp. Photosensitive material H, 3-(4-azidophenyl)-N-(4,4′-dimethoxybutyl)-2-phenylcarbonylamino-prop-2-enamide] | ≦0.1 g | ≦0.1 g | very low solubility |  |
| COC(CCCNC(=O)C(=Cc1cccnc1)NC(=O)C=Cc1ccc(N=[N+]=[N-])cc1)OC [Comp. Photosensitive material I, 2-(3-(4-azidophenyl)prop-2-enoylamino)-N-(4,4-dimethoxybutyl)-3-(3-pyridyl)prop-2-enamide] | 0.2 g (complete | ≦0.1 g | lower than that of photosensitive materials C to F | 0.4 g (partial |
| COC(CCCNC(=O)C(=Cc1ccc(N=[N+]=[N-])cc1)NC(=O)c1ccc(CN2CCOCC2)cc1)OC [Photosensitive material C, 3-(4-azidophenyl)-N-(4,4′-dimethoxybutyl)-2-(4-morpholinomethylphenyl)carbonylamino-prop-2-enamide] | 5 g (complete | ≦0.1 g |  |  |
| C=CCN(CC=C)Cc1ccc(C(=O)NC(=Cc2ccc(N=[N+]=[N-])cc2)C(=O)NCCCC(OC)OC)cc1 [Photosensitive material E, 3-(4-azidophenyl)-N-(4,4′-dimethoxybutyl)-2-(4-diallylaminomethylphenyl)carbonylamino-prop-2-enamide] | 5 g (complete | ≦0.1 g |  |  |
| [N-]=[N+]=Nc1ccc(C=C(NC(=O)c2ccc(CN3CCOCC3)cc2)C(=O)NCCCC=O)cc1 [Photosensitive material F, 3-(4-azidophenyl)-N-(3-formylpropyl)-2-(4-morpholinomethylphenyl)carbonylamino-prop-2-enamide] | 5 g (complete | ≦0.1 g |  |  |
